Measurements as given in patent US20210107874A1, “PHARMACEUTICAL FORMULATION OF CROTONYLAMINOPYRIDINE SALT” (priority 2017, published 2021).
Counter-ions that a name gives are not always drawn.

Experiments:
[1] = Solubility of synthesized tartrate salt and free base of compound 4; type: physicochemical; conditions: synthesized tartrate salt; read-out: solubility (can be dissolved)
Method: The free base of compound 4 has a solubility of 0.8 mg/ml

Cooperia oncophora = assay: In vivo efficacy in challenged calves, percent reduction of nematodes; conditions: subcutaneous injection
Method: (§1) Calves of 2-6 months of age were challenged with Ostertagia ostertagi (approx. 20,000 larvae L3/calf) on Day 0 and Cooperia oncophora (approx. 20,000 larvae L3/calf) on Day 1 by oral drench. At day 28, animals were treated by subcutaneous injection at a dose of 0.5 mg/kg (resp. 0.75, 1, 1.5 or 2.5 mg/kg) of a solution of compound 5. On days 35-37 animals were necropsied for extraction and counting of nematodes present. Efficacy was calculated as the percent reduction of nematodes compared to the control group. For calculation the geometric mean of the nematode numbers in treatment and control group was determined (7 animals in treatment group, 8 animals in control group). The solution A used for injection contained in 1 ml: compound 5 (100 mg), L-tartaric acid 52.6 mg, propylene glycol 400 mg, benzyl alcohol 20 mg, water for injection up to 1 ml. A control group was treated by injection of vehicle only. The solution B used for injection contained in 1 ml: (50 mg Compound 5; 24.74 mg L-tartaric acid, water for injection up to 1 ml).

Ostertagia ostertagi = assay: as above; conditions: subcutaneous injection
Method: as §1

[2] = Solution A (with propylene glycol), 0.5 mg/kg bodyweight
[3] = Solution A (with propylene glycol), 1.5 mg/kg bodyweight
[4] = Solution A (with propylene glycol), 2.5 mg/kg bodyweight
[5] = Solution B (without propylene glycol), 0.75 mg/kg bodyweight
[6] = Solution B (without propylene glycol), 1 mg/kg bodyweight

Structure (SMILES)	solubility [1]	reduction of C. oncophora (Cooperia oncophora; [2])	reduction of C. oncophora (Cooperia oncophora; [3])	reduction of C. oncophora (Cooperia oncophora; [4])	reduction of C. oncophora (Cooperia oncophora; [5])	reduction of C. oncophora (Cooperia oncophora; [6])	reduction of O. ostertagi (Ostertagia ostertagi; [2])	reduction of O. ostertagi (Ostertagia ostertagi; [3])	reduction of O. ostertagi (Ostertagia ostertagi; [4])	reduction of O. ostertagi (Ostertagia ostertagi; Solution B (without propylene glycol), 0.5 mg/kg bodyweight)	reduction of O. ostertagi (Ostertagia ostertagi; [5])	reduction of O. ostertagi (Ostertagia ostertagi; [6])
CCOc1cc(NCCNC(=O)/C=C/C(F)(F)F)ccn1 [tartrate salt of compound 4, tartrate salt of (E)-N-[2-[(2-ethoxy-4-pyridyl)amino]ethyl]-4,4,4-trifluoro-but-2-enamide]	145 mg/mL											
COc1cc(NCCNC(=O)/C=C/C(C)(F)F)ccn1 [tartrate salt of compound 5]		97.0%	100%	100%	94.0%	96.8%	98.7%	100%	99.8%	78.6%	99.8%	99.9%
